# What was measured:
# [1] = test system: triple-negative breast cancer (TNBC) xenografts; experiment: Triple-negative breast cancer (TNBC) xenograft, survival; assay type: in vivo, Mice; conditions: FIG. 21
# [2] = Prior experiments, signs of toxicity; assay type: in vivo; conditions: three times per week at up to 50 mg/kg
# Method: Sterile CoQ10 formula and the suitable sterile control is administered intravenously. CoQ10 doses are administered based on ongoing results. […] The effect of CoQ10 is compared with other chemotherapy regimens specific for each cancer line. Another arm of the study evaluates synergistic effects between CoQ10 and other chemotherapeutic agents.
# [3] = test system: Aortic smooth muscle (HASMC); experiment: Induction of early apoptosis (Bcl-2, annexin V, or caspase activation); assay type: cell-based; conditions: Heart: Aortic smooth muscle (HASMC)
# Method: (§1) The effects of Coenzyme Q10 treatment on a variety of oncogenic and normal cell lines were examined and compared. The sensitivity of cells to Coenzyme Q10 was assessed by monitoring induction of apoptosis. CoQ10 treatment of cells was carried out as described in detail below in the Materials and Methods. Induction of apoptosis was assessed in the treated cells by monitoring indicators of early apoptosis (e.g., Bcl-2 expression, caspase activation and by using annexin V assays) as described below. From these studies, the minimal CoQ10 dosage, e.g., concentration of CoQ10 and time of treatment, required to induce apoptosis in the panel of cell lines was determined.
# (§2) Cells were cultured in T-75 flasks with relevant medium supplemented with 10% Fetal Bovine Serum (FBS), 1% PSA (penicillin, streptomycin, amphotericin B) (Invitrogen and Cellgro) in a 37° C. incubator with 5% CO2 levels until 70-80% confluence was reached. To harvest cells for treatment, flasks were primed with 1 mL Trypsin, aspirated, trypsinized with an additional 3 mL, and incubated at 37° C. for 3-5 minutes. Cells were then neutralized with an equal volume of media and the subsequent solution was centrifuged at […] for 8 minutes. The supernatant was aspirated and the cells were resuspended with 8.5 ml of media. A mixture of 500 ul of the resuspension and 9.5 ml of […] was read twice by a coulter counter and the appropriate number of cells to be seeded into each dish was determined. Control and concentration ranging from 0-200 μM groups were examined in triplicate. From a 500 μM CoQ-10 stock solution, serial dilutions were performed to achieve desired experimental concentration in appropriate dishes. Dishes were incubated in a 37° C. incubator with 5% CO2 levels for 0-72 hours depending on cell type and experimental protocol.
# (§3) Following cell treatment incubation period was complete, protein isolation was performed. Dishes of all treatment groups were washed twice with 2 ml, and once with 1 ml of ice cold 1× Phosphate Buffered Saline (PBS). The PBS was aspirated from the dishes after the initial 2 washes only. Cells were gently scraped and collected into microcentrifuge tubes using the final volume from the third wash and centrifuged at 10,000 rpm for 10 minutes. After centrifugation, the supernatant was aspirated and the pellet was lysed with 50 uL of lysis buffer (1 uL of protease and phosphotase inhibitor for every 100 uL of lysis buffer). Samples were then frozen overnight at −20° C.
# (§4) After the cell treatment incubation period was complete, protein isolation was performed. Flasks of all treatment groups were washed twice with 5 mL, and once with 3 mL of ice cold 1×PBS. The PBS was aspirated from the flasks after the first 2 washes only. Cells were gently scraped and collected into 15 mL centrifuge tubes using the final volume from the third wash and centrifuged for at 10,000 rpm for 10 minutes. After centrifugation, the supernatant was aspirated and the pellet was lysed with an appropriate amount of lysis buffer (1 uL of protease and phosphotase inhibitor for every 100 uL of lysis buffer). Lysis buffer volume was dependent on pellet size. Samples were transferred in microcentrifuge tubes and frozen overnight at −20° C.
# (§5) Samples were thawed at […] and sonicated to ensure homogenization the day following protein isolation. Protein quantification was performed using the micro BCA protein assay kit (Pierce). To prepare samples for Immuno-blotting, a 1:19 solution of betamercaptoethanol (Sigma) to sample buffer (Bio-Rad) was prepared. Samples were diluted 1:1 with the betamercaptoethanol-sample buffer solution, boiled at 95° C. for 5 minutes, and frozen overnight at −20° C.
# (§6) The volume of sample to load per well was determined using the raw mean concentration of protein obtained from the BCA protein assay. Approximately 30-60 μg of protein were loaded for each treatment time point. […]
# [4] = test system: BT-20; experiment: as above; assay type: cell-based; conditions: BREAST: BT-20
# Method: as §1, §2, §3, §4, §5, §6
# [5] = test system: Hep3B; experiment: as above; assay type: cell-based; conditions: LIVER: Hep3B
# Method: as §1, §2, §3, §4, §5, §6
# [6] = test system: HepG2; experiment: as above; assay type: cell-based; conditions: LIVER: HepG2
# Method: as §1, §2, §3, §4, §5, §6
# [7] = test system: Keratinocytes (Heka, Hekn); experiment: as above; assay type: cell-based; conditions: SKIN: Keratinocytes (Heka, Hekn)
# Method: as §1, §2, §3, §4, §5, §6
# [8] = test system: Mammary fiboblasts: 184A1 and 184B5) (Lawrence Berkeley); experiment: as above; assay type: cell-based; conditions: BREAST: Mammary fiboblasts: 184A1 and 184B5
# Method: as §1, §2, §3, §4, §5, §6
# [9] = test system: Melanoma (Skmel 28); experiment: as above; assay type: cell-based; conditions: SKIN: Melanoma (Skmel 28)
# Method: as §1, §2, §3, §4, §5, §6
# [10] = test system: Osteosarcoma (143b); experiment: as above; assay type: cell-based; conditions: BONE: Osteosarcoma (143b)
# Method: as §1, §2, §3, §4, §5, §6
# [11] = test system: PC3; experiment: as above; assay type: cell-based; conditions: PROSTATE: PC3
# Method: as §1, §2, §3, §4, §5, §6
# [12] = test system: PaCa2; experiment: as above; assay type: cell-based; conditions: PANCREAS: PaCa2
# Method: as §1, §2, §3, §4, §5, §6
# [13] = test system: SCC, Squamous cell carcinoma; experiment: as above; assay type: cell-based; conditions: SKIN: SCC
# Method: as §1, §2, §3, §4, §5, §6
# [14] = test system: SkBr-3; experiment: as above; assay type: cell-based; conditions: BREAST: SkBr-3
# Method: as §1, §2, §3, §4, §5, §6
# [15] = test system: normal cells, including keratinocytes and dermal fibroblasts; experiment: Proliferation and migration of normal cells; assay type: cell-based
# [16] = test system: MIAPaCa-2, SKOV-3, PC-3, HT-29, MCF7, MDA-MB231, SKBR-3, A549, Hep3B cancer cells; experiment: In vitro CoQ10 monotherapy of various cancer cell types; assay type: cell-based; conditions: 100 μM CoQ10 for 48-72 hours; FIG. 16
# Method: Cells were treated with 100 μM CoQ10 for 48-72 hours.
smiles,measurement,setting,value
"COC1=C(OC)C(=O)C(C/C=C(\C)CC/C=C(\C)CC/C=C(\C)CC/C=C(\C)CC/C=C(\C)CC/C=C(\C)CC/C=C(\C)CC/C=C(\C)CC/C=C(\C)CCC=C(C)C)=C(C)C1=O [CoQ10, Coenzyme Q10]","Survival, CoQ10 in combination with the TAC regimen","[1]; 75 mg/kg CoQ10, TAC: 5 mg/kg docetaxel, 1 mg/mg doxorubicin, 35 mg/kg cyclophosphamide every three weeks for six cycles",significantly improved survival
same,"Survival, CoQ10 alone",[1]; 75 mg/kg body weight CoQ10 (BPM 31510),significantly improved survival
same,Signs of toxicity,[2],no signs of toxicity
same,"Indication of Early apoptosis (Bcl-2, annexin V, or caspase activation)",[3],None
same,"Indication of Early apoptosis (Bcl-2, annexin V, or caspase activation)",[4],Strong
same,"Minimal CoQ10 concentration required for induction of early apoptosis, Concentration",[4],100 µM
same,"Minimal treatment time required for induction of early apoptosis, Time",[4],48 h
same,"Indication of Early apoptosis (Bcl-2, annexin V, or caspase activation)",[5],Very Strong
same,"Minimal CoQ10 concentration required for induction of early apoptosis, Concentration",[5],50 µM
same,"Minimal treatment time required for induction of early apoptosis, Time",[5],24 h
same,"Indication of Early apoptosis (Bcl-2, annexin V, or caspase activation)",[6],Very Strong
same,"Minimal CoQ10 concentration required for induction of early apoptosis, Concentration",[6],50 µM
same,"Minimal treatment time required for induction of early apoptosis, Time",[6],24 h
same,"Indication of Early apoptosis (Bcl-2, annexin V, or caspase activation)",[7],None
same,"Indication of Early apoptosis (Bcl-2, annexin V, or caspase activation)",[8],None
same,"Indication of Early apoptosis (Bcl-2, annexin V, or caspase activation)",[9],Strong
same,"Minimal CoQ10 concentration required for induction of early apoptosis, Concentration",[9],20 µM
same,"Minimal treatment time required for induction of early apoptosis, Time",[9],24 h
same,"Indication of Early apoptosis (Bcl-2, annexin V, or caspase activation)",[10],Very Strong
same,"Minimal CoQ10 concentration required for induction of early apoptosis, Concentration",[10],50 µM
same,"Minimal treatment time required for induction of early apoptosis, Time",[10],48 h
same,"Indication of Early apoptosis (Bcl-2, annexin V, or caspase activation)",[11],Very Strong
same,"Minimal CoQ10 concentration required for induction of early apoptosis, Concentration",[11],25 µM
same,"Minimal treatment time required for induction of early apoptosis, Time",[11],24 h
same,"Indication of Early apoptosis (Bcl-2, annexin V, or caspase activation)",[12],Very Strong
same,"Minimal CoQ10 concentration required for induction of early apoptosis, Concentration",[12],25 µM
same,"Minimal treatment time required for induction of early apoptosis, Time",[12],24 h
same,"Indication of Early apoptosis (Bcl-2, annexin V, or caspase activation)",[13],Very Strong
same,"Minimal CoQ10 concentration required for induction of early apoptosis, Concentration",[13],25 µM
same,"Minimal treatment time required for induction of early apoptosis, Time",[13],24 h
same,"Indication of Early apoptosis (Bcl-2, annexin V, or caspase activation)",[14],Very Strong
same,"Minimal CoQ10 concentration required for induction of early apoptosis, Concentration",[14],50 µM
same,"Minimal treatment time required for induction of early apoptosis, Time",[14],24 h
same,Proliferation and migration in normal cells,[15],increased proliferation and migration
same,Cell death in cancer cells,[16],increased cell death
